In ChEMBL document CHEMBL1201862, “PubChem BioAssay data set” (2004):
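Five compound concentrations were applied to cells in 96-well plates for 48 hours; endpoints were derived by simple linear interpolation of the resulting dose-response curve. GI50 is the concentration that inhibits growth by half.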 Activity calls are given as the source filed them. No stated cut-off is given here; in the data, active = GI50 up to about 1.1 µM and inactive = higher.

Columns and labels:
Assay in all cases: DTP human tumour cell line panel, 48 h
NCI-H23 = system: NCI-H23
UACC-257 = system: UACC-257
LOX IMVI = system: LOX IMVI
IGROV-1 = system: IGROV-1
SF-268 = system: SF-268
MDA-MB-435 = system: MDA-MB-435
UACC-62 = system: UACC-62
CCRF-CEM = system: CCRF-CEM
K562 = system: K562
U-251 = system: U-251
SK-MEL-28 = system: SK-MEL-28
786-0 = system: 786-0
HOP-62 = system: HOP-62
RPMI-8226 = system: RPMI-8226
SK-MEL-2 = system: SK-MEL-2
SF-539 = system: SF-539
NCI-H522 = system: NCI-H522
SNB-75 = system: SNB-75
A498 = system: A498
SR = system: SR

Measured: GI50

COc1cc(/C=C2\CCc3cc(OC)c(OC)cc3C2=O)cc(OC)c1
inactive: NCI-H23 10.9 µM | UACC-257 19.7 µM | LOX IMVI 6.3 µM | IGROV-1 7.35 µM | SF-268 41.2 µM | MDA-MB-435 1.99 µM | UACC-62 3.75 µM | CCRF-CEM 4.08 µM | K562 3.03 µM | U-251 6.28 µM | SK-MEL-28 15.8 µM | 786-0 4.66 µM | HOP-62 7.94 µM | RPMI-8226 12.8 µM | SK-MEL-2 5.96 µM | SF-539 5.38 µM | NCI-H522 5.93 µM | SNB-75 21.3 µM | A498 6.82 µM

Nc1ccc2c(c1)C(=O)c1c(F)cccc1-2
inactive: NCI-H23 61.8 µM | UACC-257 > 100 µM | LOX IMVI 41.6 µM | SF-268 17.9 µM | MDA-MB-435 > 100 µM | UACC-62 32 µM | CCRF-CEM 15 µM | U-251 53.1 µM | SK-MEL-28 34.2 µM | 786-0 29.4 µM | HOP-62 30.3 µM | RPMI-8226 20.4 µM | SK-MEL-2 81.7 µM | SF-539 24.5 µM | NCI-H522 34.5 µM | SNB-75 10.4 µM | A498 > 100 µM

Cn1c(=O)c2c(nc3n(CC(O)CCl)c(=O)ccn23)n(C)c1=O (stereo not drawn)
inactive: NCI-H23 42.7 µM | UACC-257 76.6 µM | LOX IMVI 29.1 µM | IGROV-1 20.8 µM | SF-268 20.5 µM | MDA-MB-435 47.8 µM | UACC-62 36.5 µM | CCRF-CEM 5.19 µM | K562 39.2 µM | U-251 44 µM | SK-MEL-28 66.7 µM | 786-0 26.4 µM | HOP-62 46.9 µM | RPMI-8226 19.5 µM | SK-MEL-2 > 100 µM | SF-539 46.7 µM | NCI-H522 16.6 µM | SNB-75 29.1 µM | A498 54.5 µM

NNc1nncc2[nH]cnc12
inactive: NCI-H23 > 100 µM | SR > 100 µM | UACC-257 > 100 µM | IGROV-1 > 100 µM | SF-268 > 100 µM | MDA-MB-435 > 100 µM | UACC-62 > 100 µM | CCRF-CEM > 100 µM | K562 > 100 µM | U-251 > 100 µM | SK-MEL-28 > 100 µM | 786-0 > 100 µM | HOP-62 > 100 µM | RPMI-8226 > 100 µM | SK-MEL-2 > 100 µM | SF-539 > 100 µM | SNB-75 > 100 µM | A498 > 100 µM

COC(=O)c1cc(O)c(O)c(O)c1-c1c(O)c(O)c(O)c(SC[C@H](NC(=O)OCc2ccccc2)C(=O)OCc2ccccc2)c1C(=O)OC
inactive: NCI-H23 22 µM | UACC-257 32.8 µM | LOX IMVI 17.9 µM | IGROV-1 28.8 µM | SF-268 25.9 µM | MDA-MB-435 11.1 µM | UACC-62 22.3 µM | CCRF-CEM 16.3 µM | K562 19.6 µM | U-251 16.4 µM | SK-MEL-28 30.1 µM | 786-0 18.6 µM | HOP-62 35.1 µM | RPMI-8226 21.8 µM | SK-MEL-2 19.9 µM | SF-539 28.4 µM | NCI-H522 22.3 µM | SNB-75 20.3 µM | A498 31.5 µM

C=C(C)C1(Sc2ccc(OC)cc2)CC1
inactive: NCI-H23 31.2 µM | SR 14.6 µM | UACC-257 21.2 µM | LOX IMVI 17.3 µM | IGROV-1 30.5 µM | SF-268 15.8 µM | MDA-MB-435 7.94 µM | UACC-62 51.9 µM | CCRF-CEM 17.5 µM | K562 14.9 µM | U-251 29 µM | SK-MEL-28 79.1 µM | 786-0 29.6 µM | HOP-62 34.1 µM | RPMI-8226 9.29 µM | SK-MEL-2 21.3 µM | SF-539 23.2 µM | SNB-75 21.9 µM | A498 29.3 µM

C=C(C)[C@@]1(O)CCC[C@H]1NC(=O)OC(C)(C)C
inactive: NCI-H23 > 100 µM | UACC-257 > 100 µM | LOX IMVI > 100 µM | IGROV-1 > 100 µM | SF-268 > 100 µM | MDA-MB-435 > 100 µM | CCRF-CEM 84.9 µM | U-251 > 100 µM | SK-MEL-28 > 100 µM | 786-0 > 100 µM | HOP-62 > 100 µM | SK-MEL-2 > 100 µM | NCI-H522 > 100 µM | SNB-75 > 100 µM | A498 > 100 µM

O=C1NC(NNc2ccccc2)=N/C1=C\c1ccco1
inactive: NCI-H23 18.8 µM | UACC-257 21.1 µM | IGROV-1 15.7 µM | SF-268 22.4 µM | MDA-MB-435 12.4 µM | UACC-62 4.29 µM | CCRF-CEM 4.61 µM | U-251 17.7 µM | SK-MEL-28 25.4 µM | 786-0 17.4 µM | HOP-62 33.9 µM | RPMI-8226 16.3 µM | SK-MEL-2 12.9 µM | NCI-H522 12.9 µM | SNB-75 24.7 µM | A498 46.8 µM

COC(=O)c1nc2c(C)c(O)c(O)c([C@H](C)CCC=C(C)C)c2o1
inactive: NCI-H23 28.1 µM | SR 7 µM | UACC-257 28.4 µM | LOX IMVI 43.2 µM | IGROV-1 20.9 µM | SF-268 33.3 µM | MDA-MB-435 26.8 µM | UACC-62 > 10 µM | CCRF-CEM 2.64 µM | K562 50.6 µM | U-251 28.5 µM | SK-MEL-28 32.7 µM | 786-0 18.6 µM | HOP-62 16.5 µM | RPMI-8226 13 µM | SK-MEL-2 20.5 µM | SF-539 20 µM | SNB-75 18.2 µM | A498 21.7 µM

CC(=O)c1c(C)cn(S(=O)(=O)NC(=O)Nc2nncs2)c1C
inactive: NCI-H23 > 100 µM | SR > 100 µM | UACC-257 > 100 µM | LOX IMVI > 100 µM | IGROV-1 > 100 µM | SF-268 > 100 µM | MDA-MB-435 > 100 µM | UACC-62 > 100 µM | CCRF-CEM 23.3 µM | K562 > 100 µM | U-251 > 100 µM | SK-MEL-28 > 100 µM | 786-0 > 100 µM | HOP-62 > 100 µM | RPMI-8226 > 100 µM | SK-MEL-2 > 100 µM | NCI-H522 > 100 µM | SNB-75 > 100 µM | A498 > 100 µM

CN(Cc1ccccc1)C(=S)S [SODIUM BENZYL(METHYL)CARBAMODITHIOATE]
inactive: NCI-H23 45.1 µM | SR 20.6 µM | UACC-257 53.2 µM | LOX IMVI 27.9 µM | IGROV-1 52.2 µM | SF-268 53.3 µM | MDA-MB-435 43.2 µM | UACC-62 40.8 µM | CCRF-CEM 16.5 µM | K562 34.1 µM | U-251 38 µM | SK-MEL-28 69.2 µM | 786-0 19.2 µM | HOP-62 43.2 µM | SK-MEL-2 55.7 µM | NCI-H522 27.8 µM | SNB-75 > 100 µM | A498 > 100 µM
